Data as given in ChEMBL document CHEMBL3272121, “Hypolipidemic analogues of ethyl 4-benzyloxybenzoate” (J Med Chem, 1977).

Columns and labels:
Rattus norvegicus [1] = test: Hypolipidemic activity in CFY Sprague-Dawley rat assessed as serum triglyceride level at 0.5% dietary level administered for 7 days relative to control; assay type: functional
Rattus norvegicus [2] = test: Toxicity in CFY Sprague-Dawley rat assessed as body weight gain at 0.5% dietary level administered for 7 days relative to control; assay type: organism-based; details: in vivo, po, 168 h
Rattus norvegicus [3] = test: Hypolipidemic activity in CFY Sprague-Dawley rat assessed as serum triglyceride level at 0.25% dietary level administered for 7 days relative to control; assay type: functional
Rattus norvegicus [4] = test: Hypolipidemic activity in CFY Sprague-Dawley rat assessed as liver lipid per gm of liver at 0.5% dietary level administered for 7 days relative to control; assay type: functional
Rattus norvegicus [5] = test: Toxicity in CFY Sprague-Dawley rat assessed as body weight gain at 0.25% dietary level administered for 7 days relative to control; assay type: organism-based; details: in vivo, po, 168 h
Liver [6] = test: Inhibition of cholesterol biosynthesis from [1-14C]acetate in rat liver slices at 1 X 10^-4 M relative to control; assay type: functional
Liver [7] = test: Inhibition of fatty acid biosynthesis from [1-14C]acetate in rat liver slices at 1 X 10^-4 M relative to control; assay type: functional
Rattus norvegicus [8] = test: Hypolipidemic activity in CFY Sprague-Dawley rat assessed as serum cholesterol level at 0.25% dietary level administered for 7 days relative to control; assay type: functional
Rattus norvegicus [9] = test: Toxicity in CFY Sprague-Dawley rat assessed as relative liver weight at 0.25% dietary level administered for 7 days relative to control; assay type: organism-based; details: in vivo, po, 168 h
Rattus norvegicus [10] = test: Hypolipidemic activity in CFY Sprague-Dawley rat assessed as serum cholesterol level at 0.5% dietary level administered for 7 days relative to control; assay type: functional
Rattus norvegicus [11] = test: Hypolipidemic activity in CFY Sprague-Dawley rat assessed as liver lipid per gm of liver at 0.25% dietary level administered for 7 days relative to control; assay type: functional
Rattus norvegicus [12] = test: Toxicity in CFY Sprague-Dawley rat assessed as relative liver weight at 0.5% dietary level administered for 7 days relative to control; assay type: organism-based; details: in vivo, po, 168 h
Rattus norvegicus [13] = test: Toxicity in CFY Sprague-Dawley rat assessed as relative liver weight at 0.1% dietary level administered for 7 days relative to control; assay type: organism-based; details: in vivo, po, 168 h
Rattus norvegicus [14] = test: Hypolipidemic activity in CFY Sprague-Dawley rat assessed as liver lipid per gm of liver at 0.1% dietary level administered for 7 days relative to control; assay type: functional
Rattus norvegicus [15] = test: Hypolipidemic activity in CFY Sprague-Dawley rat assessed as serum triglyceride level at 0.1% dietary level administered for 7 days relative to control; assay type: functional
Rattus norvegicus [16] = test: Hypolipidemic activity in CFY Sprague-Dawley rat assessed as serum cholesterol level at 0.1% dietary level administered for 7 days relative to control; assay type: functional
Rattus norvegicus [17] = test: Toxicity in CFY Sprague-Dawley rat assessed as body weight gain at 0.1% dietary level administered for 7 days relative to control; assay type: organism-based; details: in vivo, po, 168 h
Liver [18] = test: Inhibition of fatty acid biosynthesis from [1-14C]acetate in rat liver slices at 5 X 10^-4 M relative to control; assay type: functional
Liver [19] = test: Inhibition of cholesterol biosynthesis from [1-14C]acetate in rat liver slices at […] relative to control; assay type: functional
Rattus norvegicus [20] = test: Toxicity in CFY Sprague-Dawley rat assessed as relative liver weight at 1% dietary level administered for 7 days relative to control; assay type: organism-based; details: in vivo, po, 168 h
Rattus norvegicus [21] = test: Toxicity in CFY Sprague-Dawley rat assessed as relative liver weight at 0.2% dietary level administered for 7 days relative to control; assay type: organism-based; details: in vivo, po, 168 h
Rattus norvegicus [22] = test: Hypolipidemic activity in CFY Sprague-Dawley rat assessed as serum cholesterol level at 1% dietary level administered for 7 days relative to control; assay type: functional
Rattus norvegicus [23] = test: Hypolipidemic activity in CFY Sprague-Dawley rat assessed as serum triglyceride level at 1% dietary level administered for 7 days relative to control; assay type: functional
Rattus norvegicus [24] = test: Toxicity in CFY Sprague-Dawley rat assessed as body weight gain at 0.2% dietary level administered for 7 days relative to control; assay type: organism-based; details: in vivo, po, 168 h
Rattus norvegicus [25] = test: Hypolipidemic activity in CFY Sprague-Dawley rat assessed as liver lipid per gm of liver at 1% dietary level administered for 7 days relative to control; assay type: functional
Rattus norvegicus [26] = test: Toxicity in CFY Sprague-Dawley rat assessed as body weight gain at 1% dietary level administered for 7 days relative to control; assay type: organism-based; details: in vivo, po, 168 h
Rattus norvegicus [27] = test: Hypolipidemic activity in CFY Sprague-Dawley rat assessed as serum triglyceride level at 0.2% dietary level administered for 7 days relative to control; assay type: functional
Rattus norvegicus [28] = test: Hypolipidemic activity in CFY Sprague-Dawley rat assessed as serum cholesterol level at 0.2% dietary level administered for 7 days relative to control; assay type: functional
Rattus norvegicus [29] = test: Hypolipidemic activity in CFY Sprague-Dawley rat assessed as liver lipid per gm of liver at 0.2% dietary level administered for 7 days relative to control; assay type: functional
Liver [30] = test: Inhibition of cholesterol biosynthesis from [1-14C]acetate in rat liver slices at 1 X 10^-3 M relative to control; assay type: functional
Liver [31] = test: Inhibition of fatty acid biosynthesis from [1-14C]acetate in rat liver slices at 1 X 10^-3 M relative to control; assay type: functional

Row | Compound | Activity (Rattus norvegicus [3]) [%] | Activity (Rattus norvegicus [5]) [%] | Activity (Rattus norvegicus [8]) [%] | Activity (Rattus norvegicus [9]) [%] | Activity (Rattus norvegicus [11]) [%] | inhibition at 500 µM (Liver [18]) [%] | inhibition at 500 µM (Liver [19]) [%] | Activity (Rattus norvegicus [20]) [%] | Activity (Rattus norvegicus [21]) [%] | Activity (Rattus norvegicus [22]) [%] | Activity (Rattus norvegicus [23]) [%] | Activity (Rattus norvegicus [24]) [%] | Activity (Rattus norvegicus [25]) [%] | Activity (Rattus norvegicus [26]) [%] | Activity (Rattus norvegicus [27]) [%] | Activity (Rattus norvegicus [28]) [%] | Activity (Rattus norvegicus [29]) [%] | other results
1 | CCOC(=O)CCc1ccc(OCc2ccc(F)cc2)cc1 | -43 | -1 | -20 | -5 | 7 |  |  |  |  |  |  |  |  |  |  |  |  | Activity (Rattus norvegicus [1]): -59%; Activity (Rattus norvegicus [2]): 4%; Activity (Rattus norvegicus [4]): 8%; inhibition at 100 µM (Liver [6]): 87%; inhibition at 100 µM (Liver [7]): 82%; Activity (Rattus norvegicus [10]): -19%; Activity (Rattus norvegicus [12]): 15%
2 | CCOC(=O)Cc1ccc(OCc2ccc(C)cc2)cc1 | -68 | -18 | -45 | 20 | 5 |  |  |  |  |  |  |  |  |  |  |  |  | Activity (Rattus norvegicus [13]): 9%; Activity (Rattus norvegicus [14]): 0%; Activity (Rattus norvegicus [15]): -49%; Activity (Rattus norvegicus [16]): -8%; Activity (Rattus norvegicus [17]): 16%
3 | CCOC(=O)Cc1ccc(OCc2ccccc2)cc1 | -84 | -23 | -18 | 28 | 65 | 100 | 93 |  |  |  |  |  |  |  |  |  |  | 
4 | CCOC(=O)Cc1ccc(OCc2ccccc2OC)cc1 | -57 | 6 | -24 | 4 | 7 |  |  | 19 | 8 | -21 | -53 | 6 | 20 | -16 | -64 | -22 | 5 | inhibition at 100 µM (Liver [6]): 57%; inhibition at 100 µM (Liver [7]): 48%
5 | CCOC(=O)c1ccc(OCc2ccc(Br)cc2)cc1 | -52 | 1 | -29 | 10 | 0 | 84 | 98 | 20 | 8 | -24 | -39 | 17 | 4 | -8 | -62 | -23 | -2 | 
6 | CCOC(=O)c1ccc(OCc2ccccc2)cc1 | -61 | 1 | -17 | 8 | 2 | 91 | 68 | 37 | 8 | -20 | -29 | -8 | 9 | -45 | -67 | -20 | -3 | Activity (Rattus norvegicus [1]): -41%; Activity (Rattus norvegicus [2]): -40%; Activity (Rattus norvegicus [13]): 9%; Activity (Rattus norvegicus [4]): 10%; Activity (Rattus norvegicus [14]): 0%; inhibition at 100 µM (Liver [6]): 42%; inhibition at 100 µM (Liver [7]): -7%; Activity (Rattus norvegicus [10]): -18%; Activity (Rattus norvegicus [15]): -14%; Activity (Rattus norvegicus [16]): -9%; Activity (Rattus norvegicus [12]): 22%; Activity (Rattus norvegicus [17]): 6%
7 | CCOC(=O)c1ccc(OCc2ccc(C)c(C)c2)cc1 | -47 | -7 | -19 | 10 | 13 | 94 | 97 |  |  |  |  |  |  |  |  |  |  | 
8 | O=C(O)c1ccc(OCc2ccccc2)cc1 | -65 | -5 | -23 | 10 | -4 | 65 | 92 | 50 | 0 | -24 | -34 | -13 | 1 | -62 | -50 | -14 | 8 | 
9 | CCOC(=O)c1ccc(OCc2ccc(F)cc2)cc1 | -48 | 9 | -31 | 8 | 1 | 12 | 86 |  |  |  |  |  |  |  |  |  |  | 
10 | CCCc1ccc(OCc2ccccc2)c(OC)c1 | 12 | 0 | 15 | 17 | 4 | 3 | 34 |  |  |  |  |  |  |  |  |  |  | 
11 | CCOC(=O)c1ccc(OCc2ccc(C)cc2)cc1 | -54 | -4 | -18 | 4 | 1 | 47 | 47 | 19 | 2 | -13 | -46 | 14 | 3 | -19 | -42 | -17 | -7 | 
12 | CCOC(=O)Cc1ccc(OCc2ccc(Cl)cc2)cc1 | -91 | -10 | -28 | 14 | 8 | 59 | 68 |  |  |  |  |  |  |  |  |  |  | 
13 | CCC(C(=O)O)c1ccccc1 (stereo unspecified) |  |  |  |  |  |  |  |  |  |  |  |  |  |  |  |  |  | inhibition at 1000 µM (Liver [30]): 30%; inhibition at 1000 µM (Liver [31]): 7%
